The results in this text go back to ChEMBL document CHEMBL1201862, “PubChem BioAssay data set” (2004).

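Cultured in 96-well plates, cells were exposed to test compound for 48 hours across five concentrations. Here, GI50 denotes the concentration required for 50% inhibition of growth.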 Active and inactive are the calls of the source. Cut-off read from the data, not from the text of the source: active = GI50 up to about 1.1 µM and inactive = higher.

Common to all, as to experiment: DTP human tumour cell line panel, 48 h
Test [1] deals with BT-549.
The test system of test [2] is KM-20L2.
Test [3] concerns SNB-78.
The subject of test [4] is LXFL 529.
Test [5] has as its system HOP-18.
For test [6], the system named is DMS-273.
For test [7], the system named is DMS-114.
The subject of test [8] is XF498.

For `COc1ccc(C(O)(c2ccccc2)c2nccc3ccccc23)cc1` (configuration not stated), in test [1], the GI50 – broadly, the concentration that inhibits growth by half – was 8.41 µM (inactive).

For the compound `Nc1ccc(/N=N/c2ccccc2)cc1`, the GI50 in test [1] is 65.6 µM (inactive).

Regarding `Cc1nc(N)c(N2CCN(Cc3ccccc3)CC2)c(O)n1`, in test [1], the GI50 was > 100 µM (inactive).

Turning to `COC(=O)c1c(C#C[Si](C)(C)C)c(C#C[Si](C)(C)C)c(C#C[Si](C)(C)C)c(C#C[Si](C)(C)C)c1C(=O)OC`, the GI50 in test [1] is > 100 µM (inactive).

For `CC(C)C1=Cc2ccc3c(c2C(=O)C1=O)CCCC3(C)C` [MILTIRONE], the GI50 in test [2] was 20.3 µM (inactive); in test [3], 3.85 µM (inactive); in test [4], 1.86 µM (inactive); in test [5] it was 2.58 µM (inactive); in test [6], 4.34 µM (inactive).

For `Cc1nc(C)c(N2CCN(CN)CC2)c(O)n1`, the GI50 in test [1] is > 100 µM (inactive).

Turning to `Cn1c(-c2cccs2)cc(-c2ccsc2)c1-c1cccs1`, in test [1], the GI50 is > 100 µM (inactive).

For the compound `Cc1cc(N(CCC#N)CCC#N)ccc1/N=N/c1cccc(Cl)c1`, the GI50 is > 100 µM (inactive) in test [2], > 100 µM (inactive) in test [3], 31.8 µM (inactive) in test [7] and 9.68 µM (inactive) in test [6].

`S=C(Nc1cccc(Cl)c1)Nc1ccccn1`: the GI50 in test [1] was > 100 µM (inactive).

`CCOC(=O)/C=C(/C(=O)OCC)n1cc(C)c(=O)n(Cc2cnnn2COCCOC(C)=O)c1=O`: the GI50 in test [1] was 17.5 µM (inactive).

With `COc1ccc2oc(=O)c(-c3nc4ccccc4o3)cc2c1`, the GI50 in test [1] was > 100 µM (inactive).

Consider `Cn1c(S)nc(C(N)=O)c1N`, for which the GI50 in test [1] is > 100 µM (inactive).

Regarding `COc1cc(S(=O)(=O)Nc2ccc(-c3csc(N4C(=O)C(Cl)C4c4cccs4)n3)cc2)ccc1Cl` (configuration not stated), the GI50 in test [1] was 87.7 µM (inactive).

For the compound `CN(C)CCN(C)C(=O)C1CCCN1C(=O)OCc1ccccc1` (configuration not stated), the GI50 in test [2], in test [3], in test [7], in test [4], in test [6] and in test [8] was > 100 µM (inactive) each time.

For `COC(=O)NCCc1n[nH]c2c1C(=O)C=C(N1CCOCC1)C2=O`, in test [1], the GI50 is > 100 µM (inactive).

Take `Cc1cccc2cc3c(ccc4ccccc43)c[n+]12`: the GI50 in test [1] was 7.08 µM (inactive).

Regarding `BrC(Br)([P+](c1ccccc1)(c1ccccc1)c1ccccc1)[P+](c1ccccc1)(c1ccccc1)c1ccccc1`, the GI50 in test [2] was 24.9 µM (inactive); in test [3], 19.7 µM (inactive); in test [7], 13.4 µM (inactive); in test [4] it was 15.2 µM (inactive); in test [5] it was > 100 µM (inactive); in test [6], 14.6 µM (inactive).

Consider `O=C1Nc2ccc([N+](=O)[O-])cc2/C1=N/NC(=S)Nc1ccccc1`, for which the GI50 in test [1] is 3.88 µM (inactive).

As to `C=CCN1CCC(O)(c2cc(C(=O)OCC)[nH]c2-c2cc(C)no2)C1` (configuration not stated), the GI50 in test [1] is > 100 µM (inactive).

`C=C1C(OC2O[C@@H]3O[C@@]4(C)CC[C@H]5[C@H](C)CC[C@@H](C2=C)[C@@]35O4)O[C@@H]2O[C@@]3(C)CC[C@H]4[C@H](C)CC[C@@H]1[C@@]24O3` (some centres not stated): the GI50 in test [1] is > 50 µM (inactive).

For `CCC1C(=O)OCc2c1cc1n(c2=O)Cc2cc3ccccc3nc2-1` (configuration not stated), in test [1], the GI50 was 4.38 µM (inactive).

As for `CC(=O)NC1C(OCc2ccccc2)OC(CO)C(O)C1OCC(=O)N[C@@H](C)C(=O)N[C@H](CCC(=O)NCCNc1ccc([N+](=O)[O-])c2[nH]c3ccccc3c(=O)c12)C(N)=O` (some centres not stated), the GI50 in test [1] is 20.1 µM (inactive).

Consider `COc1ccc2[nH]c3c(C)c4ccnc(NCCCN(C)CCCNc5ccc6nnn7c8ccccc8c(=O)c5c67)c4c(C)c3c2c1`, for which the GI50 in test [1] is 1.83 µM (inactive).

In the case of `CCSc1nc2n(c(=S)n1)CCN2C`, the GI50 in test [2] is 20 µM (inactive); in test [7], 18.7 µM (inactive); in test [4], 13.4 µM (inactive); in test [6], 18.1 µM (inactive).

In the case of `CCN1/C(=C/C#C/C(C)=C\c2sc3ccc(Cl)cc3[n+]2CC)Sc2ccc(Cl)cc21`, in test [1], the GI50 is 2.14 µM (inactive).

Turning to `CNC(=S)N/N=C1\CC(c2ccccc2)Oc2ccccc21` (configuration not stated), the GI50 in test [3], in test [4] and in test [6] was > 100 µM (inactive) in each case.

As to `CC(C)(C)OC(=O)N(CCCCNC(=O)OCc1ccccc1)CCCNC(=O)OCc1ccccc1`, the GI50 in test [1] is 53 µM (inactive).

Turning to `CCNC(=O)c1cc(/C=C/c2ccc([N+](=O)[O-])o2)nc2ccccc12`, in test [1], the GI50 was 29.8 µM (inactive).

As for `Cc1cccc2c(N)c3cccc(C(=O)NCC[N+](C)(C)Cc4sc(N5CCOCC5)nc4[N+](=O)[O-])c3nc12`, the GI50 in test [1] is 13.1 µM (inactive).

`CCn1c2c(c3ccccc3c1=O)C(=O)c1ccccc1-2`: in test [1], the GI50 was > 100 µM (inactive).

As to `Cc1ccc(C(=O)Nc2ccc(CP(=O)(O)O)cc2)cc1NC(=O)c1cccc(NC(=O)Nc2cccc(C(=O)Nc3cc(C(=O)Nc4ccc(CP(=O)(O)O)cc4)ccc3C)c2)c1`, the GI50 in test [1] was > 100 µM (inactive).

`CC(=O)OCC1OC(OC(C)=O)C(NC#N)C(OC(C)=O)C1OC(C)=O` (configuration not stated): the GI50 in test [7] was > 100 µM (inactive); in test [4], 67.9 µM (inactive); in test [5], > 100 µM (inactive); in test [6] it was > 100 µM (inactive).

Regarding `N#CC(Cc1ccccc1)N(CCC1=CCCCC1)C(c1ccccc1)c1ccccc1` (configuration not stated), in test [1], the GI50 was > 100 µM (inactive).

As for `O=[N+]([O-])c1cccc(/C=N/N=c2\ccc3ccccc3[nH]2)c1O`, in test [1], the GI50 was 3.78 µM (inactive).

For `CN(C)/C=C/C=C(/C=N/S(=O)(=O)C(F)(F)F)C1C=CN(S(=O)(=O)C(F)(F)F)C=C1`, the GI50 in test [1] is 26.2 µM (inactive).

As to `Cn1ccnc1SC(F)(F)c1nc2ccccc2o1`, in test [1], the GI50 is 46.5 µM (inactive).

On to `O=C1CCCCC1C(O)(C(F)(F)F)C(F)(F)Cl` (configuration not stated), for which the GI50 in test [1] was > 10 µM (inactive).

On to `CN(C)c1ccc(-c2cc(O)c3ccccc3n2)cc1`, for which the GI50 in test [2], in test [3], in test [7], in test [4] and in test [6] was > 100 µM (inactive) throughout.

On to `Cc1cn(C2CC(OC(c3ccccc3)(c3ccccc3)c3ccccc3)C(COC(c3ccccc3)(c3ccccc3)c3ccccc3)O2)c(=O)[nH]c1=O` (configuration not stated), for which the GI50 in test [1] is 27.5 µM (inactive).

As to `COc1ccc(-c2nc3ccccc3s2)cc1OC`, the GI50 in test [1] is 15.4 µM (inactive).

On to `Cc1c2c(nc3ccccc13)C(=O)c1cccnc1C2=O`, for which the GI50 in test [1] is 61.8 µM (inactive).

For `CC(=O)OC12OC(C)(C3C(=O)N(c4ccccc4)C(=O)C31)N(c1ccccc1)C2=O` (configuration not stated), the GI50 in test [1] is > 100 µM (inactive).

Turning to `CC1(C)CCCCCCCCCC2CC2CCC(C)(C)C1=O` (configuration not stated), the GI50 in test [1] was 34.4 µM (inactive).

For `O=C1CSC(C(/N=N/c2ccccc2)=C2Nc3ccccc3N2)=N1`, the GI50 in test [2] was > 100 µM (inactive); in test [3], 46.8 µM (inactive); in test [7], 36.1 µM (inactive); in test [4], 34 µM (inactive); in test [6], 20.1 µM (inactive); in test [8], 27.9 µM (inactive).

With `COc1nc(C#CC2(O)CCCCC2)nc(OC)n1`, in test [1], the GI50 was 14.5 µM (inactive).

In the case of `NC(=O)NNc1nc2ccccc2c(=O)n1NC(=O)C(=O)Nc1ccc(Cl)cc1Cl`, in test [1], the GI50 was > 100 µM (inactive).

Turning to `COc1ccccc1-c1nc[nH]c1-c1ccccc1OC`, in test [1], the GI50 is 33.4 µM (inactive).

In the case of `N#Cc1c(O)cc(=O)n2c1[nH]c1ccccc12`, the GI50 in test [1] was > 100 µM (inactive).
